In patent publication US9408856B2, “Topical steroidal formulations” (Temple University—Of The Commonwealth System of Higher …, priority 2008, dated 2016):

Test system: dexamethasone-induced thymic and splenic atrophy
Test: Dexamethasone-induced thymic and splenic atrophy in mice
Format: in vivo, CD-1 mice
Set-up: Thymus wt / Spleen wt: unit not given here
Details: for Approximate Potency Compared to Fluasterone in Protecting Against DEX-induced Thymic and Splenic Involution: fluasterone = 1
Protocol: Administration of dehydroepiandrosterone (DHEA, 60 mg/kg, s.c.) for three days partially reverse thymic and splenic atrophy induced by a single injection of dexamethasone (1.6 mg/mouse). In this experiment, the efficacy of either 10 mg/kg or 20 mg/kg DHEA administered s.c. versus the effect of 10 mg/kg or 20 mg/kg fluasterone was investigated.
5% Cremophor (polyethoxylated castor oil; Sigma Chemicals)-95% saline vehicle was prepared using 95 mL of sterile 0.9% NaCl (filtered through sterile 0.22 micron filter) and 5 mL of Cremophor. The Cremophor was dissolved by swirling for approximately 5 minutes.
Dexamethasone solutions were prepared by dissolving dexamethasone (Sigma Chemicals) in absolute ethanol. For example, 71.9 mg of dexamethasone was dissolved in 2.9 mL of absolute ethanol. In order to prevent precipitation, the solution was kept on a hotplate between injections.
For the 10 mg/kg suspension, 25.7 mg of DHEA was weighed out, transferred to a glass scintillation vial, and 10.3 mL of the Cremophor-saline vehicle was added. The DHEA suspension was homogenized using a Tissumizer at 80% power for 30 sec. The Tissumizer was rinsed with 70% ethanol prior to homogenization. After the 10 mg/kg DHEA suspension was homogenized the probe was rinsed 2× with 50 mL of absolute ethanol, then with 50 mL of 70% ethanol, and then dried with sterile gauze. For the 20 mg/kg DHEA suspension, 50.9 mg DHEA was suspended in 10.2 mL of Cremophor-saline vehicle.
19.4 mg of fluasterone was weighed out and transferred to a glass scintillation vial. 7.8 mL of Cremophor-saline vehicle was added to the vial and the contents of the vial were homogenized with a Tissumizer as described previously. Prior to preparing the 20 mg/kg fluasterone, the probe was rinsed 2× with 50 mL of absolute ethanol and 1× with 50 mL of 70% ethanol. For the 20 mg/kg suspension, 47.0 mg was weighed out and transferred to a glass scintillation vial. 9.4 mL of Cremophor-saline vehicle was added to the vial and the contents of the vial were homogenized with a Tissumizer as described above.
Female CD-1 mice, 43-45 days old, were obtained from Charles River Laboratories. The mice were housed 5 per cage in plastic shoebox cages with ad libitum access to Purina chow 5015 and water in the Pharmacy CAF with 12 hr of alternating light and darkness.
Prior to the experiment the mice were weighed, separated into 6 groups containing 5 mice each and treated as follows:
Mice were treated s.c. with 0.1 mL of 5% Cremophor-95% saline for three days. On the third day, the mice were also treated s.c. with 1.6 mg of dexamethasone dissolved in 0.06 mL of absolute. ethanol.
Mice were treated s.c. with 0.25 mg of DHEA suspended in 0.1 mL of 5% Cremophor-95% saline for three days. On the third day, the mice were also treated s.c. with 1.6 mg of dexamethasone dissolved in 0.06 mL of absolute ethanol.
Mice were treated s.c. with 0.5 mg of DHEA suspended in 0.1 mL of 5% Cremophor-95% saline for three days. On the third day, the mice were also treated s.c. with 1.6 mg of dexamethasone dissolved in 0.06 mL of absolute ethanol.
Mice were treated s.c. with 0.25 mg of fluasterone suspended in 0.1 mL of 5% Cremophor-95% saline for three days. On the third day, the mice were also treated s.c. with 1.6 mg of dexamethasone dissolved in 0.06 mL of absolute ethanol.
Mice were treated s.c. with 0.5 mg of fluasterone suspended in 0.1 mL of 5% Cremophor-95% saline for three days. On the third day, the mice were also treated s.c. with 1.6 mg of dexamethasone dissolved in 0.06 mL of absolute ethanol.
All s.c. injections were made in the nape. All mice were lightly anesthetized while the s.c. injections were done.
Twenty-four hours after dexamethasone treatment, the mice were euthanized by an overdose of isoflurane. The spleen and thymus were removed, cleaned of any adventitia, rinsed, blotted on filter paper, and weighed. […]

[1] = Table 15, steroid 10 mg/kg in Cremophor-saline + dexamethasone
[2] = Table 15, steroid 20 mg/kg in Cremophor-saline + dexamethasone
[3] = Table 16, steroid 20 mg/kg + dexamethasone
[4] = Table 16, steroid 60 mg/kg + dexamethasone
[5] = Table 16, steroid 5 mg/kg + dexamethasone
[6] = Table 16, steroid 10 mg/kg + dexamethasone

SMILES | Spleen wt [1] | Spleen wt/BW [1] | Thymus wt [1] | Thymus wt/BW [1] | Approximate Potency Compared to Fluasterone in Protecting Against DEX-induced Thymic and Splenic Involution (mice) | Spleen wt [2] | Spleen wt/BW [2] | Thymus wt [2] | Thymus wt/BW [2] | also measured
C[C@@H]1C[C@H]2[C@@H]3CC=C4CCCC[C@]4(C)[C@H]3CC[C@]2(C)C1=O [16α-methyl-5-androsten-17-one] | 37.8 ± 6.1 | 1.5 ± 0.3 | 28.0 ± 1.7 | 1.1 ± 0.1 | about ⅙ or less |  |  |  |  | Body Weight [1]: 25.3 ± 0.8
C[C@H]1CC[C@@]2(C)C(=CC[C@@H]3[C@@H]2CC[C@]2(C)C(=O)CC[C@@H]32)C1 [3β-methyl-5-androsten-17-one] | 70.7 + 4.5 | 2.9 + 0.2 | 61.9 + 3.9 | 2.6 + 0.2 | slightly less active | 67.0 ± 11.3 | 2.6 ± 0.2 | 62.2 ± 4.1 | 2.4 ± 0.2 | rank of activity among steroids tested against DEX-induced thymic and splenic involution (mice): almost as great potency
C[C@]12CCCCC1=CC[C@@H]1[C@@H]2CC[C@]2(C)C(=O)[C@H](O)C[C@@H]12 [16α-hydroxy-5-androsten-17-one] |  |  |  |  | about 1/12 |  |  |  |  | Body Weight [3]: 25.4 ± 1.5; Spleen wt [3]: 46.6 ± 7.5; Spleen wt/BW [3]: 1.8 ± 0.2; Thymus wt [3]: 41.2 ± 1.3; Thymus wt/BW [3]: 1.6 ± 0.1; Body Weight [4]: 23.8 ± 0.8; Spleen wt [4]: 53.6 ± 6.3; Spleen wt/BW [4]: 2.2 ± 0.3; Thymus wt [4]: 45.9 ± 3.1; Thymus wt/BW [4]: 1.9 ± 0.2
C[C@H]1CC[C@@]2(C)C(=CC[C@@H]3[C@@H]2CC[C@]2(C)C(=O)[C@H](Cl)C[C@@H]32)C1 [3β-methyl-16α-chloro-5-androsten-17-one] | 42.3 ± 5.6 | 1.6 ± 0.2 | 31.7 ± 4.1 | 1.2 ± 0.1 | about ⅙ or considerably | 38.6 ± 6.3 | 1.2 ± 0.3 | 28.6 ± 3.2 | 1.1 ± 0.1 | 
C[C@@H]1C[C@H]2[C@@H]3CCC4=CC(=O)C=C[C@]4(C)[C@@]3(F)[C@@H](O)C[C@]2(C)[C@@]1(O)C(=O)CO [DEXAMETHASONE, dexamethasone, reference compound] |  |  |  |  |  |  |  |  |  | Thymus wt (Table 12, dexamethasone 1.6 mg s.c. once after vehicle s.c. 3 days, 24 h after dexamethasone): 33.2 ± 1.3
C[C@]12CCCCC1=C[C@@H](O)[C@@H]1[C@@H]2CC[C@]2(C)C(=O)[C@H](F)C[C@@H]12 [7α-hydroxyfluasterone, 7α-hydroxy-16α-fluoro-5-androsten-17-one] |  |  |  |  | about ½ |  |  |  |  | Body Weight [5]: 24.5 ± 1.0; Spleen wt [5]: 46.3 ± 11.1; Spleen wt/BW [5]: 1.8 ± 0.5; Thymus wt [5]: 43.8 ± 6.9; Thymus wt/BW [5]: 1.8 ± 0.3; Body Weight [6]: 24.0 ± 1.3; Spleen wt [6]: 50.9 ± 12.5; Spleen wt/BW [6]: 2.1 ± 0.5; Thymus wt [6]: 54.8 ± 12.1; Thymus wt/BW [6]: 2.3 ± 0.4
C[C@H]1CC[C@@]2(C)C(=CC[C@@H]3[C@@H]2CC[C@]2(C)C(=O)[C@H](F)C[C@@H]32)C1 [3β-methyl-16α-fluoro-5-androsten-17-one] | 50.9 ± 7.5 | 2.0 ± 0.3 | 43.8 ± 3.0 | 1.7 ± 0.1 | <½ | 55.0 ± 4.6 | 2.2 ± 0.1 | 55.8 ± 5.4 | 2.2 ± 0.2 | 
C[C@H]1CC[C@@]2(C)C(=CC[C@@H]3[C@@H]2CC[C@]2(C)C(=O)[C@H](C)C[C@@H]32)C1 [3β-methyl-16α-methyl-5-androsten-17-one] | 44.9 + 9.2 | 1.7 + 0.3 | 42.6 + 4.7 | 1.7 + 0.2 | about ⅙ | 44.4 ± 8.7 | 1.8 ± 0.3 | 37.7 ± 4.0 | 1.5 ± 0.2 | recovery from anesthesia (two mice of the group) (20 mg/kg group, Example 9): never recovered from anesthesia
